ChEMBL document CHEMBL5370544, “Design, synthesis, and biological evaluation of 1-styrenyl isoquinoline derivatives for anti-hepatocellular carcinoma activity and effect on mitochondria” (Eur J Med Chem, 2023)
Activity calls are given as the source filed them. The rule behind the calls is not given here.

What was measured:
[1] = system: SK-HEP1; test: Inhibition of colony formation in human SK-HEP1 cells assessed as reduction in number of cell colonies at 1.25 to 5 uM measured after 10 and 14 days by crystal violet staining based light microscopic analysis; assay type: functional; details: dose 1.25-5 µM, time 14.0 day
[2] = system: SK-HEP1; test: Induction of apoptosis in human SK-HEP1 cells assessed as nuclear membrane breakdown at 1.5 to 13.5 uM incubated for 24 hrs by giemsa staining based micrscopic analysis; assay type: functional, cell-based; details: dose 1.5-13.5 µM
[3] = system: Huh-7; test: Antiproliferative activity against human Huh-7 cells assessed as reduction in ratio of EdU-positive cells measured after 24 hrs by EdU incorporation assay; assay type: functional, cell-based; details: dose 0.55-2.2 µM
[4] = system: SK-HEP1; test: Induction of ROS production in human SK-HEP1 cells assessed as increase in intracellular ROS level at 1.5 to 13.5 uM incubated for 24 hrs by DCFH-DA staining based fluorescence assay; assay type: functional, cell-based; details: dose 1.5-13.5 µM
[5] = system: Huh-7; test: Induction of apoptosis in human Huh-7 cells assessed as increase in Bax expression at 0.9 to 8.1 uM incubated for 48 hrs by Western blotting analysis; assay type: functional, cell-based; details: dose 0.9-8.1 µM
[6] = system: Huh-7; test: Induction of apoptosis in human Huh-7 cells assessed as inhibition of caspase-9 expression incubated for 48 hrs by Western blotting analysis; assay type: functional, cell-based; details: dose 0.9-8.1 µM
[7] = system: Huh-7; test: Induction of apoptosis in human Huh-7 cells assessed as chromatin condensation at 0.9 to 8.1 uM incubated for 24 hrs by giemsa staining based micrscopic analysis; assay type: functional, cell-based; details: dose 0.9-8.1 µM
[8] = system: Huh-7; test: Antitumor activity against human Huh-7 cells xenografted in BALB/c mouse assessed as tumor growth inhibition at 15 mg/kg, ip qd measured after 14 days; assay type: functional; details: Huh-7, 336 h, time 14 day, read-out: TGI
[9] = system: Huh-7; test: Induction of apoptosis in human Huh-7 cells assessed as increase in cleaved caspase-3 expression at 0.9 to 8.1 uM incubated for 48 hrs by Western blotting analysis; assay type: functional, cell-based; details: dose 0.9-8.1 µM
[10] = system: SK-HEP1; test: Induction of apoptosis in human SK-HEP1 cells assessed as increase in Bax expression at 1.5 to 13.5 uM incubated for 48 hrs by Western blotting analysis; assay type: functional, cell-based; details: dose 1.5-13.5 µM
[11] = target: Serine/threonine-protein kinase mTOR (Homo sapiens) (UniProt P42345); test: Inhibition of mTOR signalling pathway in human Huh-7 cells assessed as inhibition of mTOR phosphorylation at 0.9 to 8.1 uM measured after 48 hrs by Western blotting analysis; assay type: cell-based; details: dose 0.9-8.1 µM
[12] = system: Huh-7; test: Induction of apoptosis in human Huh-7 cells assessed as inhibition of Bcl-2 expression incubated for 48 hrs by Western blotting analysis; assay type: functional, cell-based; details: dose 0.9-8.1 µM
[13] = system: SK-HEP1; test: Induction of apoptosis in human SK-HEP1 cells assessed as inhibition of caspase-3 expression incubated for 48 hrs by Western blotting analysis; assay type: functional, cell-based; details: dose 1.5-13.5 µM
[14] = system: SK-HEP1; test: Induction of apoptosis in human SK-HEP1 cells assessed as increase in cleaved caspase-9 expression at 1.5 to 13.5 uM incubated for 48 hrs by Western blotting analysis; assay type: functional, cell-based; details: dose 1.5-13.5 µM
[15] = target: Serine/threonine-protein kinase mTOR (Homo sapiens) (UniProt P42345); test: Inhibition of mTOR signalling pathway in human SK-HEP1 cells assessed as inhibition of mTOR phosphorylation at 1.5 to 13.5 uM measured after 48 hrs by Western blotting analysis; assay type: cell-based; details: dose 1.5-13.5 µM
[16] = system: Huh-7; test: Induction of cell cycle arrest in human Huh-7 cells assessed as decrease in cyclin B1 expression incubated for 48 hrs by Western blotting analysis; assay type: functional, cell-based; details: dose 0.9-8.1 µM
[17] = system: Huh-7; test: Antitumor activity against human Huh-7 cells xenografted in ip dosed BALB/c mouse assessed as reduction in tumor volume measured after 14 days; assay type: functional, organism-based; details: dose 15-30 mg/kg, time 14.0 day
[18] = system: Huh-7; test: Antiproliferative activity against human Huh-7 cells assessed as inhibition of cell growth measured after 72 hrs by MTT assay; assay type: functional, cell-based
[19] = system: Huh-7; test: Induction of apoptosis in human Huh-7 cells assessed as inhibition of caspase-3 expression incubated for 48 hrs by Western blotting analysis; assay type: functional, cell-based; details: dose 0.9-8.1 µM
[20] = system: SK-HEP1; test: Induction of mitochondrial membrane potential depolarization in human SK-HEP1 cells incubated for 24 hrs by TMRE staining based flow cytometry analysis; assay type: functional, cell-based; details: dose 1.5-13.5 µM
[21] = system: SK-HEP1; test: Induction of cell cycle arrest in human SK-HEP1 cells assessed as decrease in cyclin B1 expression incubated for 48 hrs by Western blotting analysis; assay type: functional, cell-based; details: dose 1.5-13.5 µM
[22] = system: SK-HEP1; test: Induction of cell cycle arrest in human SK-HEP1 cells assessed as decrease in CDK1 expression incubated for 48 hrs by Western blotting analysis; assay type: functional, cell-based; details: dose 1.5-13.5 µM
[23] = system: Huh-7; test: Antitumor activity against human Huh-7 cells xenografted in BALB/c mouse assessed as reduction in tumor growth at 15 to 30 mg/kg, ip qd measured after 5 days; assay type: functional, organism-based; details: dose 15-30 mg/kg, time 5.0 day
[24] = system: Huh-7; test: Induction of apoptosis in human Huh-7 cells assessed as increase in proportion of early apoptosis at 0.9 to 8.1 uM incubated for 24 hrs by Annexin V-AbFluor 488/propidium iodide staining based flow cytometry analysis; assay type: functional, cell-based; details: dose 0.9-8.1 µM
[25] = system: Huh-7; test: Induction of mitochondrial membrane potential depolarization in human Huh-7 cells incubated for 24 hrs by TMRE staining based flow cytometry analysis; assay type: functional, cell-based; details: dose 0.9-8.1 µM
[26] = target: Serine/threonine-protein kinase AKT (Homo sapiens) (UniProt P31751+Q9Y243+P31749); test: Inhibition of Akt signalling pathway in human Huh-7 cells assessed as inhibition of Akt phosphorylation at 0.9 to 8.1 uM measured after 48 hrs by Western blotting analysis; assay type: cell-based; details: dose 0.9-8.1 µM
[27] = system: SK-HEP1; test: Induction of apoptosis in human SK-HEP1 cells assessed as increase in proportion of early apoptosis at 1.5 to 13.5 uM incubated for 24 hrs by Annexin V-AbFluor 488/propidium iodide staining based flow cytometry analysis; assay type: functional, cell-based; details: dose 1.5-13.5 µM
[28] = system: Huh-7; test: Induction of cell cycle arrest in human Huh-7 cells assessed as decrease in CDK1 expression incubated for 48 hrs by Western blotting analysis; assay type: functional, cell-based; details: dose 0.9-8.1 µM
[29] = system: Huh-7; test: Antimigratory activity against human Huh-7 cells assessed as down-regulation of N-cadherin expression at 0.55 to 2.2 uM incubated 24 hrs by Western blotting analysis; assay type: functional, cell-based; details: dose 0.55-2.2 µM
[30] = system: Huh-7; test: Induction of apoptosis in human Huh-7 cells assessed as nuclear membrane breakdown at 0.9 to 8.1 uM incubated for 24 hrs by giemsa staining based micrscopic analysis; assay type: functional, cell-based; details: dose 0.9-8.1 µM
[31] = system: SK-HEP1; test: Induction of apoptosis in human SK-HEP1 cells assessed as cell shrinkage at 1.5 to 13.5 uM incubated for 24 hrs by giemsa staining based micrscopic analysis; assay type: functional; details: dose 1.5-13.5 µM
[32] = system: HepG2; test: Antiproliferative activity against human HepG2 cells assessed as inhibition of cell growth measured after 72 hrs by MTT assay; assay type: functional, cell-based; details: HepG2, 72 h
[33] = Acute toxicity in BALB/c mouse assessed as change in body weight at 650 mg/kg, ip measured at day 2; assay type: organism-based; details: in vivo, 48 h, time 2 day
[34] = system: Huh-7; test: Antitumor activity against human Huh-7 cells xenografted in BALB/c mouse assessed as reduction in tumor weight at 15 to 30 mg/kg, ip qd; assay type: functional, organism-based; details: dose 15-30 mg/kg, time 14.0 day, TDE = time-dependent effect
[35] = system: SK-HEP1; test: Induction of apoptosis in human SK-HEP1 cells assessed as cell membrane blebbing at 1.5 to 13.5 uM incubated for 24 hrs by giemsa staining based micrscopic analysis; assay type: functional; details: dose 1.5-13.5 µM

Sequence of Serine/threonine-protein kinase AKT (Homo sapiens) (P31749 whole entry, looked up): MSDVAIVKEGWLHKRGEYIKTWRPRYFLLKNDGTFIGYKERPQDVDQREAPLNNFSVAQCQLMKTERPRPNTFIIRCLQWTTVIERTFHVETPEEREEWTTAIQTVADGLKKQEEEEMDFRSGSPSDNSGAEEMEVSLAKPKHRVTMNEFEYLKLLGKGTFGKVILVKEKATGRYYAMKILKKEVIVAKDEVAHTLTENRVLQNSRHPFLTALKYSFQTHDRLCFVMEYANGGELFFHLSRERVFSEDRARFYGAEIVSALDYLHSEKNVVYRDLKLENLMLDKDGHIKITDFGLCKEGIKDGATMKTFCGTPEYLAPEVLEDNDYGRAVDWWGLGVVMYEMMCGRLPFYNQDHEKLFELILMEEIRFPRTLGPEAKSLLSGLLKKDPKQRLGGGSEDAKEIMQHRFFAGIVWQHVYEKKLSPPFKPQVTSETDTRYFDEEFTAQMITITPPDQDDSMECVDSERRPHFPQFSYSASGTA
Sequence of Serine/threonine-protein kinase AKT (Homo sapiens) (P31751 whole entry, looked up): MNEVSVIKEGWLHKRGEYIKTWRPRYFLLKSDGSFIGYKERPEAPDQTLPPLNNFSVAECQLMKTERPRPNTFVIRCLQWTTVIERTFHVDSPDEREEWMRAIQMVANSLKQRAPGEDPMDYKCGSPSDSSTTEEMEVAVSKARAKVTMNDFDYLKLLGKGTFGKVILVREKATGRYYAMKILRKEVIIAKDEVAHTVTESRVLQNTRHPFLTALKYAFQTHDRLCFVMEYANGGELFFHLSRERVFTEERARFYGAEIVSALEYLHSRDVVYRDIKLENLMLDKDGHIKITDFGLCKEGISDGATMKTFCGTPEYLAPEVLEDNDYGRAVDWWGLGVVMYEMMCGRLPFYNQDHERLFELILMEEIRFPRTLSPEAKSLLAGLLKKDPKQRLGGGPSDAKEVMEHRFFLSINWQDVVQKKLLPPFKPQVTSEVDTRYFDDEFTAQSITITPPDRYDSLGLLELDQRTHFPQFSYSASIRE
Sequence of Serine/threonine-protein kinase AKT (Homo sapiens) (Q9Y243 whole entry, looked up): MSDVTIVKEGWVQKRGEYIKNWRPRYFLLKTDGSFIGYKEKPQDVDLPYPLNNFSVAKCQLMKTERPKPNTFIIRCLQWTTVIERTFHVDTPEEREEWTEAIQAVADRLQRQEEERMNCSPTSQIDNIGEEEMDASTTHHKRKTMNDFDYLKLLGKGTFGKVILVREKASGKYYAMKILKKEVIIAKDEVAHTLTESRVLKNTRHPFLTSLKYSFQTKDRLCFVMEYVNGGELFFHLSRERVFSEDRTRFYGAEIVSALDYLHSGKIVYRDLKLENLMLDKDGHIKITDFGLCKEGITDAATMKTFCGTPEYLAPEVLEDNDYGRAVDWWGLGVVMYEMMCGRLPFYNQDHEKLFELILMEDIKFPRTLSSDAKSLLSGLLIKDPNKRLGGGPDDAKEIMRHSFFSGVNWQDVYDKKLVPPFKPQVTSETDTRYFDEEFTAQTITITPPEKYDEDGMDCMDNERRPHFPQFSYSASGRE

For `CC(=O)Oc1ccccc1/C=C/c1nccc2ccccc12`, which inhibition [1] is on record?
Its inhibition is “Active”.

And the Activity [2]?
The Activity was “Active”.

And the Activity [3]?
Its Activity is “Dose-Dependent Effect”.

What about the Activity [4] of the same compound?
The Activity was “Active”.

What about the Activity [5] of the same compound?
Its Activity is “Active”.

What about the Activity [6] of the same compound?
The Activity was “Dose-Dependent Effect”.

What about the Activity [7] of the same compound?
Its Activity is “Active”.

What about the inhibition in vivo at 15 mg/kg [8] of the same compound?
The inhibition in vivo at 15 mg/kg was 27.4%.

What about the Activity [9] of the same compound?
The Activity was “Active”.

And the Activity [10]?
The Activity was “Active”.

And the Activity [11]?
Its Activity is “Active”.

And the Activity [12]?
The Activity was “Dose-Dependent Effect”.

And the Activity [13]?
Its Activity is “Dose-Dependent Effect”.

What about the Activity [14] of the same compound?
Its Activity is “Active”.

What about the inhibition [15] of the same compound?
Its inhibition is “Active”.

What about the Activity [16] of the same compound?
Its Activity is “Dose-Dependent Effect”.

What about the Activity [17] of the same compound?
The Activity was “Dose-Dependent Effect”.

What about the Activity [18] of the same compound?
Its Activity is “Dose-Dependent Effect”.

What about the IC50 ([18]; Huh-7, 72 h) of the same compound?
Its IC50 is 2.52 µM.

What about the Activity [19] of the same compound?
Its Activity is “Dose-Dependent Effect”.

What about the Activity [20] of the same compound?
The Activity was “Dose-Dependent Effect”.

What about the Activity [21] of the same compound?
Its Activity is “Dose-Dependent Effect”.

And the Activity [22]?
The Activity was “Dose-Dependent Effect”.

What about the Activity [23] of the same compound?
Its Activity is “Active”.

And the Activity [24]?
Its Activity is “Active”.

And the Activity [25]?
Its Activity is “Dose-Dependent Effect”.

And the inhibition [26]?
The inhibition was “Active”.

And the Activity [27]?
The Activity was “Active”.

And the Activity [28]?
Its Activity is “Dose-Dependent Effect”.

What about the Activity [29] of the same compound?
The Activity was “Active”.

And the Activity [30]?
The Activity was “Active”.

What about the Activity [31] of the same compound?
The Activity was “Active”.

What about the IC50 [32] of the same compound?
Its IC50 is 9.76 µM.

And the Activity [33]?
Its Activity is “Toxic”.

What about the Activity [34] of the same compound?
The Activity was “Tde”.

And the Activity [35]?
The Activity was “Active”.
